Entries after “also recorded” stand apart in the source; their conditions may differ. Marks after values point to notes of the source that are not given here.
Columns and labels:
[1] = Phase II study: safety (adverse events); assay type: in vivo, human; details: oral, 2 g once daily for 8 weeks
Excerpt: Subjects visited the clinic on 6 occasions: at screening, baseline, week 2, week 4, week 8 (end of treatment/early termination) and week 10 (follow-up). All subjects exited the study at the week 10 visit. The primary efficacy variable was the proportion of patients achieving an IGA of 0 (clear) or 1 (almost clear), and a decrease of at least 2 points in IGA at week 8. Secondary efficacy variables included: IGA at other visits, pruritus (obtained from the SCORAD visual analog scale), EASI, BSA, POEM, DLQI, SCORAD and TEWL (for selected sites only). Safety was assessed through adverse events, physical examination, vital signs and safety laboratory tests (including pregnancy tests for women of childbearing potential). Pharmacokinetic samples were obtained at Baseline (Day 0), week 4 and week 8 visits in order to measure total and free DGLA plasma trough levels. Separate plasma samples were retained for later analysis of total fatty acid profile and interleukin profile.
Laboratory tests were performed at screening, Day 0, Week 4 and Week 8. If Week 8 results indicated a clinically significant change from baseline, laboratory tests were also performed at Week 10. […]
Efficacy was evaluated on the basis of the ITT population and analyses were performed based on the randomized treatment and not on the treatment received. […]

[2] = test system: patients with moderate to severe atopic dermatitis having normal eosinophil levels; experiment: Post hoc stratification of the phase II study by eosinophil level (normal <0.3×10^9/L); assay type: in vivo, human; details: for Percentage Change of BSA Levels From Baseline, Mean / Percentage Change of DLQI Scores From Baseline, Mean / Percentage Change of EASI Scores From Baseline, Mean / Percentage Change of IGA Scores From Baseline, Mean / Percentage Change of POEM Scores From Baseline, Mean / Percentage Change of SCORAD Levels From Baseline, Mean / Percentage Change of VAS Scores From Baseline, Mean: Normal Eosinophil Population
Method: Further to the randomized, double-blind, placebo-controlled, phase II study of Example 2 above, a post hoc stratification analysis was performed using the results of that study to assess the efficacy of orally administered DS107G (DGLA) to patients with moderate to severe atopic dermatitis having normal eosinophil levels of less than about 0.3×10^9/L compared to the same population receiving placebo and/or to the total study population. The primary objective of the post hoc stratification study was to compare the efficacy of orally administered DS107G capsules, versus placebo, in the treatment of adult patients with moderate to severe atopic dermatitis having normal eosinophil levels of less than about 0.3×10^9/L. The secondary objective was to compare the efficacy of orally administered DS107G capsules in the treatment of adult patients with moderate to severe atopic dermatitis having normal eosinophil levels of less than about 0.3×10^9/L versus the total study population. Unless stated otherwise, all elements of the post hoc stratification analysis were the same as those of the phase II study described in Example 2 above.

[3] = Normal Eosinophil < 0.3 × 10^9/L, daily, 8 weeks
[4] = Normal Eosinophil < 0.3 × 10^9/L, daily, 8 weeks, LOCF
[5] = normal eosinophil levels, weeks 2, 4, 6, 8 and 10, vs placebo or total study population
[6] = patients having normal eosinophil levels
[7] = study population having normal eosinophil levels, oral, once daily, 8 weeks

CCCCC/C=C\C/C=C\C/C=C\CCCCCCC(=O)O [DS107G, Dihomo gamma linolenic acid]
drug related Serious Adverse Events [1]: no drug related Serious Adverse Events | tolerability [1]: very well tolerated | EASI-50 (%) [2, 3]: 60% | EASI-75 (%) [2, 3]: 40% | BSA Change from Baseline [2, 4]: −41% * | EASI Percentage Change from Baseline [2, 4]: −51% * | IGA responder (%) [2, 4]: 42% * | Pruritus Percentage Change from Baseline [2, 4]: −53% * | Percentage Change of BSA Levels From Baseline, Mean ([2]; Week 2): −10.8% | Percentage Change of DLQI Scores From Baseline, Mean ([2]; Week 2): −41.3% | Percentage Change of EASI Scores From Baseline, Mean ([2]; Week 2): −20.7% | Percentage Change of IGA Scores From Baseline, Mean ([2]; Week 2): −15.1% | Percentage Change of POEM Scores From Baseline, Mean ([2]; Week 2): −41.8% | Percentage Change of SCORAD Levels From Baseline, Mean ([2]; Week 2): −16.5% | Percentage Change of VAS Scores From Baseline, Mean ([2]; Week 2): −29.8% | Percentage Change of BSA Levels From Baseline, Mean ([2]; Week 4): −21.2% | Percentage Change of DLQI Scores From Baseline, Mean ([2]; Week 4): −58.2% | Percentage Change of EASI Scores From Baseline, Mean ([2]; Week 4): −41.9% | Percentage Change of IGA Scores From Baseline, Mean ([2]; Week 4): −28.8% | Percentage Change of POEM Scores From Baseline, Mean ([2]; Week 4): −55.3% | Percentage Change of SCORAD Levels From Baseline, Mean ([2]; Week 4): −34.8% | Percentage Change of VAS Scores From Baseline, Mean ([2]; Week 4): −50.9% | Percentage Change of BSA Levels From Baseline, Mean ([2]; Week 8): −41.0% | Percentage Change of DLQI Scores From Baseline, Mean ([2]; Week 8): −57.5% | Percentage Change of EASI Scores From Baseline, Mean ([2]; Week 8): −51.1% | Percentage Change of IGA Scores From Baseline, Mean ([2]; Week 8): −42.6% | Percentage Change of POEM Scores From Baseline, Mean ([2]; Week 8): −53.1% | Percentage Change of SCORAD Levels From Baseline, Mean ([2]; Week 8): −44.3% | Percentage Change of VAS Scores From Baseline, Mean ([2]; Week 8): −52.7% | Percentage Change of BSA Levels From Baseline, Mean ([2]; Week 10): −49.7% | Percentage Change of DLQI Scores From Baseline, Mean ([2]; Week 10): −61.6% | Percentage Change of EASI Scores From Baseline, Mean ([2]; Week 10): −59.6% | Percentage Change of IGA Scores From Baseline, Mean ([2]; Week 10): −46.2% | Percentage Change of POEM Scores From Baseline, Mean ([2]; Week 10): −50.1% | Percentage Change of SCORAD Levels From Baseline, Mean ([2]; Week 10): −47.1% | Percentage Change of VAS Scores From Baseline, Mean ([2]; Week 10): −47.7% | effect in patients having normal eosinophil levels compared to placebo or the total study population ([2]; in vivo): greater effect; also recorded: higher response rate | change in BSA levels relative to baseline [2, 5]: greater change | change in DLQI levels relative to baseline [2, 5]: greater change | change in EASI scores relative to baseline [2, 5]: greater change | change in IGA scores relative to baseline [2, 5]: greater change | change in POEM scores relative to baseline [2, 5]: greater change | change in SCORAD levels relative to baseline [2, 5]: greater change | change in VAS scores relative to baseline [2, 5]: greater change | IGA responder rate ([2]; patients having high eosinophil levels (greater than about 0.3×10^9/L)): 0% | EASI scoring: patients classified as responders [2, 6]: 51% | IGA responders (IGA 0 or 1 at Week 8, 2-point decrease) [2, 6]: 42% | Pruritus scores (VAS): patients classified as responders [2, 6]: 53% | pruritus reduction [2, 6]: 53% | EASI (% decrease) [2, 7]: 51% | IGA responders (%) [2, 7]: 42% | Pruritus delta (as measured by VAS) [2, 7]: 53% | Pruritus score decrease (as measured by VAS) [2, 7]: c. (2.0) | SCORAD (% decrease) [2, 7]: 44%
